Measurements reported in patent publication US20170319572A1, “COMBINATION DRUG TREATMENT FOR HEPATITIS C INFECTION” (JANSSEN PHARMACEUTICALS, INC., priority 2015, published 2017).
Entries after “also recorded” stand apart in the source; their conditions may differ.

Key:
[1] = target: T1, BCRP (Homo sapiens, UniProt Q9UNQ0); settings: cited from earlier work
T1 sequence (Q9UNQ0 1-655): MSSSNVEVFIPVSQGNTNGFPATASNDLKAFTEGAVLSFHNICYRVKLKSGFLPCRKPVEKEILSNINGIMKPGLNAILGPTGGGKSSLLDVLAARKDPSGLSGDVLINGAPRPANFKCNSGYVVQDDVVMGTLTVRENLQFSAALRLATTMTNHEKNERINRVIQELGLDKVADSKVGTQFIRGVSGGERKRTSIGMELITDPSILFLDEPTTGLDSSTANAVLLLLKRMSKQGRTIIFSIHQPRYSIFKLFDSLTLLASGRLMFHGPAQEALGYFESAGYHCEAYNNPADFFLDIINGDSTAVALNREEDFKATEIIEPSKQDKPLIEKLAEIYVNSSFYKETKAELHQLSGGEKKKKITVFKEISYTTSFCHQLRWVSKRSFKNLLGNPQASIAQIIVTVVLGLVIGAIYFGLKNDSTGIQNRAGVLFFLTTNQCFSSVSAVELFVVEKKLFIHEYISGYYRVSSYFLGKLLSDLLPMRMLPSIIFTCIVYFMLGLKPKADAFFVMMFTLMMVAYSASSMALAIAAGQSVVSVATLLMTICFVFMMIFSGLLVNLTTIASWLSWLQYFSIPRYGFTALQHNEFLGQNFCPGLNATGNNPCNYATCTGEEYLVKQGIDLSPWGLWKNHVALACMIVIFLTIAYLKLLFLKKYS

[2] = test system: CYP (any CYP); assay: CYP inhibition; settings: on any CYP
[3] = Drug-drug interaction study in humans (Phase-1, open-label, two-group, fixed-sequence, PK); settings: for increase of exposure caused by SMV: co-administration of SMV
Procedure: A drug-drug interaction study (DDI) study is a study designed to investigate whether a drug alters the pharmacokinetics of another drug or drugs or their metabolites.
Compound (III)—Subjects received 800 mg of Compound (III) once daily from Days 1-3, Days 11-13, and Days 21-23. PK blood samples for determination of Compound (III) and metabolite concentrations were collected in reference to the Day 3, Day 13, and Day 23 doses.
Simeprevir—Subjects received 150 mg of Simeprevir (SMV) once daily from Days 4-23. PK blood samples for determination of SMV concentrations were collected in reference to the Day 10, Day 13, Day 20, and Day 23 doses.
Odalasvir—Subjects received a loading dose of 150 mg on Day 14, and 50 mg of Odalasvir once daily from Days 15-23. PK blood samples for determination of Odalasvir concentrations were collected in reference to the Day 20 and Day 23 doses.
Compound (III)—Subjects received 800 mg of Compound (III) once daily from Days 1-3, Days 11-13 and Days 21-23. PK blood samples for determination of Compound (III) and metabolite concentrations were collected in reference to the Day 3, Day 13, and Day 23 doses.
Simeprevir—Subjects receive 150 mg of SMV once daily from Days 4-23. PK blood samples for determination of SMV concentrations were collected in reference to the Day 20 and Day 23 doses.
Odalasvir—Subjects receive a loading dose of 150 mg on Day 4, and 50 mg of Odalasvir once daily from Days 5-23. PK blood samples for determination of Odalasvir concentrations were collected in reference to the Day 10, Day 13, Day 20, and Day 23 doses.
This drug-drug interaction study was intended to assess the safety and tolerability of the described drug combinations at pre-defined time points throughout the study. Study completion/follow-up visit(s) were performed 7 and 28 days after completion of the last study assessment.
A primary objective was to evaluate the effect of multiple oral doses of Odalasvir (alone), Simeprevir (alone), and Odalasvir and Simeprevir on the multiple oral dose PK of Compound (III) (and certain metabolites thereof, such as the major metabolites in systemic circulation) in healthy volunteers. Other objectives were to evaluate the safety and tolerability of multiple oral doses of Compound (III) when administered alone and in combination with single and multiple oral doses of Odalasvir and/or Simeprevir in healthy volunteers; to determine the potential effect of Compound of Compound (III) and/or Odalasvir on the steady-state PK of Simeprevir in healthy volunteers; to determine the potential effect of Compound of Compound (III) and/or Simeprevir on the steady state PK of Odalasvir in healthy volunteers.
Various other PK parameters were estimated including: Clast, t1/2, Tmax, Tlast, CL/F, Vz/F, and λz.
The following daily doses were employed:
Odalasvir: 150 mg loading dose; 50 mg for the remainder of the study period.

[4] = target: T2, OATP1B1 (Homo sapiens, UniProt Q9Y6L6); settings: cited from earlier work
T2 sequence (Q9Y6L6 1-691): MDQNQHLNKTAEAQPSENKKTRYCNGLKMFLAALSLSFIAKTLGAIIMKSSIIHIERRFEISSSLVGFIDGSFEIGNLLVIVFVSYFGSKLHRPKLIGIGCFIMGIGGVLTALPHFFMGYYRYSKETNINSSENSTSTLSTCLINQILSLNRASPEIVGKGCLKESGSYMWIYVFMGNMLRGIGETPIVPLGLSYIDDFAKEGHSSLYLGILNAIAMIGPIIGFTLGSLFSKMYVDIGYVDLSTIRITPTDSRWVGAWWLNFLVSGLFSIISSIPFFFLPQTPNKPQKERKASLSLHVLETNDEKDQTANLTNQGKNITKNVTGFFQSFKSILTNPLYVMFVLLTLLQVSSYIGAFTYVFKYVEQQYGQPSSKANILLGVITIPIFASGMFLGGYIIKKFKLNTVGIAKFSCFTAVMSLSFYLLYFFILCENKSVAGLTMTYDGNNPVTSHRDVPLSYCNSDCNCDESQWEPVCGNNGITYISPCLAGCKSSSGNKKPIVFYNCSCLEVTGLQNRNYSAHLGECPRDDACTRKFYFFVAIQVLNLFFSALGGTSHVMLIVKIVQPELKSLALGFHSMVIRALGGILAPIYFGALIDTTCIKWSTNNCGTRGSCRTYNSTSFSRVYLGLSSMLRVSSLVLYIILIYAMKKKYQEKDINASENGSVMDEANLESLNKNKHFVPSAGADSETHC

Row | SMILES | inhibition of BCRP [1] | CYP inhibition potential [2] | increase of exposure caused by Odalasvir ([3]; DDI study, co-administration of Odalasvir) [×] | increase of exposure caused by SMV ([3]; DDI study) [×] | Cmax ([3]; Group 1, Day 13, Compound (III) 800 mg QD + SMV 150 mg QD) [ng/mL] | Cmax ([3]; Group 1, Day 23, Compound (III) 800 mg + SMV 150 mg + ODV 50 mg QD) [ng/mL] | Cmax ([3]; Group 2, Day 3, Compound (III) 800 mg QD alone) [ng/mL] | Cmax ([3]; Group 2, Day 13, (Compound (III) + SMV) as printed in Table 1) [ng/mL] | Cmax ([3]; Group 2, Day 23, Compound (III) 800 mg + SMV 150 mg + ODV 50 mg QD) [ng/mL] | increase of exposure in the combination ([3]; both, human, in vivo) | Cmax ([3]; healthy volunteers, Group 1, Day 3, Compound (III) 800 mg QD alone) [ng/mL] | bioavailability with SMV and ODV co-administered compared to Compound (III) alone ([3]; human subjects) | inhibition of OATP1B1 [4] | increase of exposure, effect of the three Compounds ([3]; DDI study, Compound (III) + SMV + Odalasvir together) [×] | effect of Compound (III) on exposure/bioavailability ([3]; DDI study, co-administration of Compound (III)) | increase of exposure in the combination ([3]; human in vivo study (Example 1), three drugs combined) [times] | increase of exposure by SMV ([3]; human subjects) [fold]
1 | CC(C)OC(=O)[C@H](C)N[P@](=O)(OC[C@@]1(F)O[C@@H](n2ccc(=O)[nH]c2=O)[C@](C)(O)[C@@H]1O)Oc1ccccc1 [Compound (III), isopropyl ((S)-(((2S,3S,4R,5R)-5-(2,4-dioxo-3,4-dihydropyrimidin-1 (2H)-yl)-2-fluoro-3,4-dihydroxy-4-methyltetrahydrofuran-2-yl)methoxy)(phenoxy)phosphoryl)-L-alaninate] | no in vitro inhibition | limited CYP inhibition potential | 4 | 3 | 376.2 | 746.6 | 150.7 | 515.9 | 949.6 | 7-8 times | 161.6 | approximately 8 fold | no in vitro inhibition | – | – | – | –
2 | COC(=O)N[C@H](C(=O)N1[C@H](c2nc3cc(-c4cc5ccc4CCc4ccc(c(-c6ccc7[nH]c([C@@H]8C[C@@H]9CCCC[C@@H]9N8C(=O)[C@@H](NC(=O)OC)C(C)C)nc7c6)c4)CC5)ccc3[nH]2)C[C@@H]2CCCC[C@@H]21)C(C)C [ODV, methyl [(2S)-1-[(2S,3aS,7aS)-2-[6-[11-[2-[(2S,3aS,7aS)-1-[(2S)-2-[(methoxycarbonyl)amino]-3-methylbutanoyl]octahydro-1H-indol-2-yl]-1H-benzimidazol-6-yl]tricyclo[8.2.2.2^4,7]hexadeca-1(12),4,6,10,13,15-hexaen-5-yl]-1H-benzimidazol-2-yl]octahydro-1H-indol-1-yl]-3-methyl-1-oxobutan-2-yl]carbamate] | no inhibition | does not inhibit cytochrome P450 enzymes; also recorded: does not inhibit CYP450 activity | – | 1.6 | – | – | – | – | – | – | – | – | no inhibition | 1.5 | no apparent effect; also recorded: does not alter the bioavailability | 1.5 | 1.6
